Laboratory results from patent US20080194646A1, “Methods For Avoiding Edema in the Treatment of Metabolic, Inflammatory, and Cardiovascular Disorders” (priority 2005, published 2008).

Experiments:
C57BL/6j ob/ob Mice [1] = assay: glucose lowering activity of halofenate analogs in ob/ob mice (Example 14); format: in vivo; conditions: for plasma glucose concentrations vs vehicle: Student unpaired t-test; for Glucose 6 hours / Glucose 30 hours / Glucose 54 hours: plasma glucose; for Predose Glucose: baseline before dosing
Experimental: Male, 8-9 weeks old, C57BL/6J ob/ob mice were purchased from The Jackson Laboratory (Bar Harbor, Me., USA). Animals were housed (4-5 mice/cage) under standard laboratory conditions at 22±3° C. temperature and 50±20% relative humidity, and were maintained on a diet of Purina rodent chow and water ad libitum. Prior to treatment, blood was collected from the tail vein of each animal. Mice that had non-fasting plasma glucose levels between 250 and 500 mg/dl were used. Each treatment group consisted of 8-10 mice that were distributed so that the mean glucose levels were equivalent in each group at the start of the study. Mice were dosed orally by gavage once a day for 1-3 days with either vehicle, (−) halofenic acid, (+) analog 14, 29, 33, 34, 35, 36, 37, or 38 at 125 mg/kg or (−) analog 29, 36, 37 or 38 at 150 mg/kg. Compounds were delivered in a liquid formulation containing 5% (v/v) dimethyl sulfoxide (DMSO), 1% (v/v) tween 80 and 0.9% (w/v) methylcellulose. The gavage volume was 10 ml/kg. Blood samples were taken at 6 hours after the each dose and analyzed for plasma glucose. Food intake and body weight were measured daily. Plasma glucose concentrations were determined colorimetrically using glucose oxidase method (Sigma Chemical Co, St. Louis, Mo., USA). Significant difference between groups (comparing drug-treated to vehicle-treated) was evaluated using the Student unpaired t-test.

C57BL/6j ob/ob Mice [2] = assay: anti-diabetic activity in C57BL/6j ob/ob mice (Example 20); format: in vivo; conditions: oral gavage once a day for 1-4 days; for minimal effective dose: Mus musculus, read-out: Potency
Experimental: The anti-diabetic activities of the compounds were evaluated in the C57BL/6j ob/ob Mice model. Male, 7-9 weeks old, C57BL/6J ob/ob mice were purchased from The Jackson Laboratory (Bar Harbor, Me., USA). Animals were housed (4-5 mice/cage) under standard laboratory conditions at 22±3° C. temperature and 50±20% relative humidity, and were maintained on a diet of Purina rodent chow and water ad libitum. Prior to treatment, blood was collected from the tail vein of each animal. Mice that had non-fasting plasma glucose levels between 250 and 500 mg/dl were used. Each treatment group consisted of 8-10 mice that were distributed so that the mean glucose levels were equivalent in each group at the start of the study. Mice were dosed orally by gavage once a day for 1-4 days with vehicle and one or more dose of test compound at a dose ranging from 5 to 125 mg/kg. Compounds were delivered in a liquid formulation containing 5% (v/v) dimethyl sulfoxide (DMSO), 1% (v/v) Tween 80® and 0.9% (w/v) methylcellulose. The gavage volume was 10 ml/kg. […] Food intake and body weight were measured daily. Plasma glucose concentrations were determined colorimetrically using a commercial glucose oxidase method (Sigma Chemical Co, St. Louis, Mo., USA). Significant difference between groups (comparing drug-treated to vehicle-treated) was evaluated using the Student unpaired t-test. Table 1 provides the relative potency of some selected compounds of the invention.

[3] = 125 mg/kg oral gavage once a day for 1-3 days
[4] = 125 mg/kg oral gavage once a day
[5] = group later dosed 125 mg/kg orally
[6] = glucose lowering, plasma glucose 6 hours after each dose
[7] = 150 mg/kg oral gavage, single dose
[8] = group later dosed 150 mg/kg orally

Row | Structure (SMILES) | plasma glucose concentrations vs vehicle (C57BL/6j ob/ob Mice [1]; [3]) | Glucose 6 hours (C57BL/6j ob/ob Mice [1]; [4]) | Glucose 30 hours (C57BL/6j ob/ob Mice [1]; [4]) | Glucose 54 hours (C57BL/6j ob/ob Mice [1]; [4]) | Predose Glucose (C57BL/6j ob/ob Mice [1]; [5]) | further results
1 | CC(=O)NCCOC(=O)C(Oc1cccc(C(F)(F)F)c1)c1ccc(F)cc1 (racemic) [(±)Analog 14] | significantly lowered plasma glucose concentrations at 6, 30 and 54 hours | 328.9 ± 34.1 mg/dL | 267.0 ± 21.3 mg/dL | 293.0 ± 29.4 mg/dL | 361.0 ± 17.1 mg/dL | –
2 | CC(=O)NCCOC(=O)C(Oc1cccc(C(F)(F)F)c1)c1ccc(Br)cc1 (racemic) [(±)Analog 29] | significantly lowered plasma glucose concentrations at 6, 30 and 54 hours | 299.7 ± 24.5 mg/dL | 237.4 ± 14.9 mg/dL | 293.3 ± 9.7 mg/dL | 387.1 ± 16.0 mg/dL | –
3 | CCCCOC(=O)C(Oc1cccc(C(F)(F)F)c1)c1ccc(Cl)cc1 (racemic) [(±)Analog 33] | significantly lowered plasma glucose concentrations at 6 and 54 hours | 227.5 ± 13.2 mg/dL | 298.0 ± 15.3 mg/dL | 286.6 ± 9.9 mg/dL | 292.0 ± 19.1 mg/dL | –
4 | CN(C)CCOC(=O)C(Oc1cccc(C(F)(F)F)c1)c1ccc(Cl)cc1 (racemic) [(±)Analog 35] | significantly lowered plasma glucose concentrations at 30 and 54 hours | 319.6 ± 26.7 mg/dL | 276.8 ± 17.6 mg/dL | 286.2 ± 31.5 mg/dL | 387.0 ± 18.0 mg/dL | –
5 | O=C(NCCOC(=O)C(Oc1cccc(C(F)(F)F)c1)c1ccc(Cl)cc1)c1ccccc1 (racemic) [(±)Analog 36] | significantly lowered plasma glucose concentrations at 30 and 54 hours | 300.5 ± 27.3 mg/dL | 249.7 ± 8.6 mg/dL | 272.2 ± 18.4 mg/dL | 329.7 ± 17.6 mg/dL | –
6 | NC(=O)COC(=O)C(Oc1cccc(C(F)(F)F)c1)c1ccc(Cl)cc1 (racemic) [(±)Analog 37] | significantly lowered plasma glucose concentrations at 54 hours | 345.4 ± 19.7 mg/dL | 312.5 ± 21.7 mg/dL | 285.1 ± 14.7 mg/dL | 387.4 ± 18.8 mg/dL | –
7 | CN(C)C(=O)COC(=O)C(Oc1cccc(C(F)(F)F)c1)c1ccc(Cl)cc1 (racemic) [(±)Analog 38] | significantly lowered plasma glucose concentrations at 6, 30 and 54 hours | 303.2 ± 18.2 mg/dL | 245.6 ± 15.6 mg/dL | 243.1 ± 10.6 mg/dL | 329.4 ± 18.9 mg/dL | –
8 | O=C(O)C(Oc1ccc(C(F)(F)F)cc1)c1cccc(C(F)(F)F)c1 (racemic) [Compound 39, (4-trifluoromethyl-phenoxy)-(3-trifluoromethyl-phenyl)-acetic acid] | – | – | – | – | – | minimal effective dose (C57BL/6j ob/ob Mice [2]; [6]): ≤ 125 mg/kg; Insulin Level compared with vehicle (C57BL/6j ob/ob Mice [2]): Lower
9 | CC(=O)NCCOC(=O)C(Oc1cccc(C(F)(F)F)c1)c1ccc(Br)cc1 (single isomer, unassigned; (-)) [(−)Analog 29] | – | – | – | – | – | plasma glucose concentrations vs vehicle (C57BL/6j ob/ob Mice [1]; [7]): significantly reduced plasma glucose concentrations at 6 hours; Glucose 6 hours (C57BL/6j ob/ob Mice [1]; [7]): 333.5 ± 16.1 mg/dL; Predose Glucose (C57BL/6j ob/ob Mice [1]; [8]): 372.2 ± 17.1 mg/dL
10 | O=C(NCCOC(=O)C(Oc1cccc(C(F)(F)F)c1)c1ccc(Cl)cc1)c1ccccc1 (single isomer, unassigned; (-)) [(−)Analog 36] | – | – | – | – | – | plasma glucose concentrations vs vehicle (C57BL/6j ob/ob Mice [1]; [7]): significantly reduced plasma glucose concentrations at 6 hours; Glucose 6 hours (C57BL/6j ob/ob Mice [1]; [7]): 281.1 ± 18.2 mg/dL; Predose Glucose (C57BL/6j ob/ob Mice [1]; [8]): 373.2 ± 15.5 mg/dL
11 | NC(=O)COC(=O)C(Oc1cccc(C(F)(F)F)c1)c1ccc(Cl)cc1 (single isomer, unassigned; (-)) [(−)Analog 37] | – | – | – | – | – | plasma glucose concentrations vs vehicle (C57BL/6j ob/ob Mice [1]; [7]): significantly reduced plasma glucose concentrations at 6 hours; Glucose 6 hours (C57BL/6j ob/ob Mice [1]; [7]): 271.7 ± 22.5 mg/dL; Predose Glucose (C57BL/6j ob/ob Mice [1]; [8]): 373.4 ± 16.1 mg/dL
12 | CN(C)C(=O)COC(=O)C(Oc1cccc(C(F)(F)F)c1)c1ccc(Cl)cc1 (single isomer, unassigned; (-)) [(−)Analog 38] | – | – | – | – | – | plasma glucose concentrations vs vehicle (C57BL/6j ob/ob Mice [1]; [7]): significantly reduced plasma glucose concentrations at 6 hours; Glucose 6 hours (C57BL/6j ob/ob Mice [1]; [7]): 251.2 ± 23.6 mg/dL; Predose Glucose (C57BL/6j ob/ob Mice [1]; [8]): 373.4 ± 16.1 mg/dL
13 | O=C(O)C(Oc1ccc(C(F)(F)F)cc1)c1cccc(C(F)(F)F)c1 (stereo not drawn) [(+)−39, (4-trifluoromethyl-phenoxy)-(3-trifluoromethyl-phenyl)-acetic acid] | – | – | – | – | – | minimal effective dose (C57BL/6j ob/ob Mice [2]; [6]): ≤ 125 mg/kg
14 | O=C(O)C(Oc1ccc(C(F)(F)F)cc1)c1cccc(C(F)(F)F)c1 (stereo not drawn) [(−)−39, (4-trifluoromethyl-phenoxy)-(3-trifluoromethyl-phenyl)-acetic acid] | – | – | – | – | – | Potency (C57BL/6j ob/ob Mice [2]; [6]): ++ (effective for glucose lowering at the dose of ≦125 mg/kg); Insulin Level compared with vehicle (C57BL/6j ob/ob Mice [2]): Lower
15 | O=C(O)C(Oc1cc(C(F)(F)F)cc(C(F)(F)F)c1)c1ccc(C(F)(F)F)cc1 (centres unmarked) [Compound 81] | – | – | – | – | – | Insulin Level compared with vehicle (C57BL/6j ob/ob Mice [2]): Lower
